Source: the supplement of paper PMC10307832

How the values were obtained:
Assay in all cases: relative viability (nuclei count vs DMSO), 5 days (fraction); higher = more cells survive
XMD13-2 + Alpelisib = compound: C1CC1C(=O)NC2=NNC3=C2C=CC(=C3)C4=CC(=CC=C4)C(=O)NC5CC5 [XMD13-2] + Cc1nc(NC(=O)N2CCC[C@H]2C(N)=O)sc1-c1ccnc(C(C)(C)C(F)(F)F)c1 [Alpelisib] (partner 2 µM)
Method in brief: (§1)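 Lung cancer cell lines were seeded in 1536-well plates and dosed by pin tool the next day, with either a single drug or a fixed anchor-drug dose combined with five library-drug doses (not always all listed) spaced in √10 steps. Five days later, one step fixed the cells and stained their nuclei (final 0.05% Triton X-100, 1% formaldehyde, 1 ug/ml Hoechst), and nuclei were counted on 4× images. Relative viability is the nuclei count in treated wells divided by the count in vehicle wells, and each value is the median of duplicate plates.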

Dasatinib + Crizotinib = compound: Cc1nc(Nc2ncc(C(=O)Nc3c(C)cccc3Cl)s2)cc(N2CCN(CCO)CC2)n1 [Dasatinib] + C[C@@H](Oc1cc(-c2cnn(C3CCNCC3)c2)cnc1N)c1c(Cl)ccc(F)c1Cl [Crizotinib] (partner 1 µM)
Method in brief: as §1

Dasatinib + Navitoclax = compound: Cc1nc(Nc2ncc(C(=O)Nc3c(C)cccc3Cl)s2)cc(N2CCN(CCO)CC2)n1 [Dasatinib] + CC1(C)CCC(c2ccc(Cl)cc2)=C(CN2CCN(c3ccc(C(=O)NS(=O)(=O)c4ccc(N[C@H](CCN5CCOCC5)CSc5ccccc5)c(S(=O)(=O)C(F)(F)F)c4)cc3)CC2)C1 [Navitoclax] (partner 0.5 µM)
Method in brief: as §1

Dasatinib + AZD7762 = compound: Cc1nc(Nc2ncc(C(=O)Nc3c(C)cccc3Cl)s2)cc(N2CCN(CCO)CC2)n1 [Dasatinib] + NC(=O)Nc1cc(-c2cccc(F)c2)sc1C(=O)N[C@H]1CCCNC1 [AZD7762] (partner 0.2 µM)
Method in brief: as §1

| Cell Line | relative viability (XMD13-2 + Alpelisib; first compound 0.05 µM) | relative viability (XMD13-2 + Alpelisib; first compound 0.1581 µM) | relative viability (XMD13-2 + Alpelisib; first compound 0.5 µM) | relative viability (XMD13-2 + Alpelisib; first compound 1.581 µM) | relative viability (XMD13-2 + Alpelisib; first compound 5 µM) | relative viability (Dasatinib + Crizotinib; first compound 0.005 µM) | relative viability (Dasatinib + Crizotinib; first compound 0.01581 µM) | relative viability (Dasatinib + Crizotinib; first compound 0.05 µM) | relative viability (Dasatinib + Crizotinib; first compound 0.1581 µM) | relative viability (Dasatinib + Crizotinib; first compound 0.5 µM) | relative viability (Dasatinib + Navitoclax; first compound 0.005 µM) | relative viability (Dasatinib + Navitoclax; first compound 0.01581 µM) | relative viability (Dasatinib + Navitoclax; first compound 0.05 µM) | relative viability (Dasatinib + Navitoclax; first compound 0.1581 µM) | relative viability (Dasatinib + Navitoclax; first compound 0.5 µM) | relative viability (Dasatinib + AZD7762; first compound 0.005 µM) | relative viability (Dasatinib + AZD7762; first compound 0.01581 µM) | relative viability (Dasatinib + AZD7762; first compound 0.05 µM) | relative viability (Dasatinib + AZD7762; first compound 0.1581 µM) | relative viability (Dasatinib + AZD7762; first compound 0.5 µM) |
| --- | --- | --- | --- | --- | --- | --- | --- | --- | --- | --- | --- | --- | --- | --- | --- | --- | --- | --- | --- | --- |
| NCI-H1792 | 0.845 | 0.691 | 0.745 | 0.845 | 0.821 | 0.938 | 0.916 | 0.874 | 0.753 | 0.51 | 0.627 | 0.606 | 0.541 | 0.402 | 0.296 | 0.62 | 0.532 | 0.489 | 0.19 | 0.0904 |
| NCI-H1355 | 0.924 | 0.888 | 0.843 | 0.777 | 0.776 | 1.04 | 0.781 | 0.983 | 0.585 | 0.443 | 0.858 | 0.653 | 0.92 | 0.534 | 0.376 | 0.851 | 0.711 | 0.694 | 0.571 | 0.535 |
| NCI-H2170 | 0.97 | 0.77 | 0.871 | 0.777 | 0.696 | 1.1 | 0.94 | 0.84 | 0.547 | 0.523 | 0.545 | 0.473 | 0.572 | 0.267 | 0.232 | 0.864 | 0.779 | 0.633 | 0.409 | 0.278 |
| NCI-H2347 | 1.04 | 1.07 | 1.08 | 0.92 | 1.05 | 0.316 | 0.397 | 0.355 | 0.301 | 0.369 | 0.875 | 0.692 | 0.467 | 0.285 | 0.228 | 0.614 | 0.538 | 0.549 | 0.296 | 0.282 |
| A-427 | 1.19 | 1.05 | 1.02 | 0.949 | 0.965 | 0.761 | 0.719 | 0.701 | 0.495 | 0.442 | 0.891 | 0.92 | 0.673 | 0.476 | 0.495 | 0.72 | 0.745 | 0.536 | 0.52 | 0.519 |
| HCC-366 | 0.61 | 0.31 | 0.334 | 0.446 | 0.443 | 0.374 | 0.18 | 0.158 | 0.0803 | 0.0691 | 0.561 | 0.601 | 0.39 | 0.569 | 0.217 | 0.234 | 0.248 | 0.143 | 0.159 | 0.0931 |
| HCC-78 | 0.392 | 0.338 | 0.327 | 0.304 | 0.352 | 0.314 | 0.289 | 0.25 | 0.158 | 0.145 | 0.619 | 0.58 | 0.688 | 0.601 | 0.247 | 0.668 | 0.618 | 0.472 | 0.372 | 0.226 |
| PC-14 | 1.01 | 0.936 | 1.01 | 0.931 | 1.11 | 0.94 | 0.975 | 0.855 | 0.448 | 0.113 | 0.976 | 0.982 | 1.09 | 0.647 | 0.0883 | 0.405 | 0.468 | 0.34 | 0.401 | 0.112 |
| NCI-H2087 | 1.14 | 1.08 | 1.13 | 1.05 | 1.03 | 0.858 | 0.938 | 0.946 | 0.863 | 0.639 | 0.997 | 0.873 | 1.07 | 0.972 | 0.532 | 1.34 | 1.19 | 1.49 | 0.857 | 0.556 |
| HOP-62 | 0.848 | 0.516 | 1.03 | 1 | 0.664 | 1.16 | 0.966 | 0.91 | 0.816 | 0.165 | 1.02 | 1.01 | 0.829 | 1.09 | 0.372 | 0.481 | 0.585 | 0.626 | 0.268 | 0.167 |
| EKVX | 1.12 | 0.882 | 0.92 | 0.931 | 0.937 | 0.994 | 0.633 | 0.528 | 0.314 | 0.138 | 0.951 | 0.958 | 0.821 | 0.407 | 0.18 | 0.684 | 0.663 | 0.515 | 0.221 | 0.172 |
| EMC-BAC-2 | 0.844 | 0.748 | 0.752 | 0.703 | 0.57 | 0.754 | 0.516 | 0.425 | 0.247 | 0.221 | 1.13 | 0.939 | 0.936 | 0.548 | 0.28 | 1.05 | 1.03 | 0.776 | 0.591 | 0.391 |
| HARA | 0.923 | 0.795 | 0.943 | 0.808 | 0.988 | 1.08 | 0.754 | 0.71 | 0.261 | 0.133 | 1.15 | 0.974 | 1 | 0.596 | 0.326 | 0.31 | 0.129 | 0.298 | 0.291 | 0.184 |
| LU99A | 0.553 | 0.491 | 0.561 | 0.446 | 0.335 | 0.538 | 0.458 | 0.473 | 0.274 | 0.301 | 0.748 | 0.924 | 0.88 | 0.828 | 0.385 | 0.399 | 0.35 | 0.277 | 0.215 | 0.171 |
| NCI-H1944 | 1.02 | 0.85 | 0.889 | 0.939 | 0.778 | 1.06 | 0.847 | 0.779 | 0.327 | 0.233 | 1.03 | 1.07 | 0.976 | 0.695 | 0.504 | 0.41 | 0.388 | 0.294 | 0.21 | 0.187 |
| LK-2 | 1.33 | 0.998 | 0.98 | 1.04 | 1.02 | 0.266 | 0.209 | 0.222 | 0.189 | 0.179 | 0.782 | 0.594 | 0.373 | 0.292 | 0.245 | 0.31 | – | 0.191 | 0.0866 | 0.129 |
